According to US8778871B2 (Takeda Pharmaceutical Company Limited, priority 2004, dated 2014):
Non-standard residues stand in square brackets, D forms with d. Residues, ends and D or L forms follow the SMILES beside them. *: point of attachment. Propanoyl(3-(3-pyridyl)) = O=C(CCc1cccnc1)*; Arg(Me) = CNC(=N)NCCC[C@H](N)C(=O)O; d4Pal = N[C@H](Cc1ccncc1)C(=O)O; azaGly = NNC(=O)O

Experiments:
Format in all cases: in vivo
[1] = Induction of ovulation in immature rat using metastin derivatives; details: for progesterone level compared with hCG administration / dose to be administered for induction of ovulation equivalent to hCG / number of oocytes in average per rat: eCG-primed immature female Wistar rats; for dose to be administered for induction of ovulation equivalent to hCG: s.c.; for blood progesterone level: relative to Group A (hCG)
Method: Equine chorionic gonadotropin (eCG, serotropin, Dainippon Pharmaceutical Co., Ltd.) was dissolved in saline (Otsuka Pharmaceutical Co., Ltd.) in a concentration of 100 IU/mL. Using a 1 ml tuberculin syringe and a 26-gauge needle (both by Terumo Co., Ltd.), eCG was subcutaneously injected into the dorsal area of female Wistar rats of 23 days old after birth (Charles River Japan, Inc.) in a dose of 10 IU/animal, during 9:00 to 10:00 AM. Following the eCG injection, the animal was grouped after 47 to 48 hours as shown below, to which groups, each drug was injected.
Group B (5 rats): Compound No. 305 was dissolved in saline at 33.3 nmol/mL and the solution was subcutaneously injected into the back in a dose of 6.7 nmol/animal.
Group C (5 rats): Compound No. 305 was dissolved in saline at […] and the solution was subcutaneously injected into the back in a dose of 2.0 nmol/animal.
Group D (5 rats): Compound No. 322 was dissolved in saline at 33.3 nmol/mL and the solution was subcutaneously injected into the back in a dose of 6.7 nmol/animal.
Group E (5 rats): Compound No. 322 was dissolved in saline at 10.0 nmol/mL and the solution was subcutaneously injected into the back in a dose of 2.0 nmol/animal.
Group F (6 rats): Saline was subcutaneously injected into the back in a dose of 200 μL/animal.
After administration of these drugs, the animal was sacrificed by decapitation after 24 to 25 hours to recover blood, bilateral oviducts and uterus. In collecting blood, 90 μl of 10 KIU/mL aprotinin solution (Trasylol, Bayer) containing 3 mg/ml EDTA had been previously filled in a tube for recovery to prevent blood clotting. After blood recovery, the blood was thoroughly blended and the mixture was centrifuged at 2,000 G for 25 minutes. After the supernatant was recovered, the product was used as a plasma sample.
The number of oocytes was counted by referring to the method described in Eur. J. Endocrinol., 138, 594-600 (1998).
Where retention of oocytes in the oviducal ampulla was confirmed by stereomicroscopic observation of the oviduct, the ampulla was punctured with a 27-gauge needle for syringe (Terumo) to retrieve the oocytes. After granulosa cells surrounding the oocytes were removed by trypsin treatment, the number of oocytes was counted. Where retention of oocytes in the oviducal ampulla was not confirmed by stereomicroscopic observation of the oviduct, a with 27-gauge needle with the polished tip for syringe was inserted into the tubal ostium and more than 400 μL of saline was flushed into the oviduct and uterine for rinsing. Then, the presence or absence of oocytes in the effluent was observed.
The blood estradiol level was measured by radioimmunoassay (DPC.Estradiol Kit, Iatron, Inc.).
The blood progesterone level was measured by radioimmunoassay (DPC.Progesterone, Iatron, Inc.).

[2] = Blood testosterone level decreasing effect in mature male rat (2 mM peptide solution, ALZET osmotic pump); details: 2 mM peptide solution in distilled water, ALZET osmotic pump s.c., 6 days, Tables 28 and 29
Method: (§1) This peptide solution was filled in 5 ALZET osmotic pumps (Model 2001, 0.2 ml in volume, release rate: 0.001 ml/hr, DURECT Corporation). The ALZET pumps filled with the peptide solution were implanted subcutaneously in 5 CD(SD)IGS male rats of 9 weeks old after birth (Charles River Japan, Inc.) on the back under ether anesthesia by one pump for one animal. For negative control, distilled water (Otsuka Pharmaceutical Co., Ltd.) was filled in 5 ALZET osmotic pumps, which were similarly implanted in 5 male CD(SD)IGS rats (Charles River Japan, Inc.), respectively. These pump-implanted rats were fed for 6 days under normal feeding conditions. After weighing, the animal was decapitated to collect blood. After 0.03 ml/ml blood of aprotinin solution (Trasylol, Bayer) containing 0.1 mg/ml EDTA.2Na was added to blood, the mixture was centrifuged at 1,800 G for 25 minutes to isolate/recover plasma. From the plasma obtained, 0.05 ml was applied to radioimmunoassay (DPC.Total Testosterone Kit, Diagnostic Products Corporation) to measure the plasma testosterone level of each rat. The value below the limit of measurement (0.04 ng/ml of plasma level) in radioimmunoassay was treated as 0. A mean value of the testosterone levels from 5 rats receiving the peptide was calculated and a relative value (percent) of the mean value to a mean value from 5 rats receiving distilled water.

[3] = Blood testosterone level decreasing effect in mature male rat (0.1 mM peptide solution)
Method: as §1
In a manner similar to TEST EXAMPLE 14, evaluation was made using 0.1 mM peptide solution and a part of the results obtained are shown in TABLE 30.

[4] = Action of reducing testosterone level in blood in mature male rat (1 mM peptide in 50% DMSO, ALZET osmotic pump); details: 1 mM peptide in 50% DMSO aqueous solution, ALZET osmotic pump s.c., six days
[5] = s.c. 2.0 nmol/animal (Groups C, E)
[6] = s.c. 6.7 nmol/animal (Groups B, D)

SMILES	rats ovulated ([1]; Group E, s.c. 2.0 mmol (so in the source) per animal)	progesterone level compared with hCG administration [1]	dose to be administered for induction of ovulation equivalent to hCG [1]	number of oocytes in average per rat [1, 5]	number of oocytes in average per rat [1, 6]	blood estradiol level [1, 5]	blood progesterone level [1, 5]	blood estradiol level [1, 6]	blood progesterone level [1, 6]	Teststerone level in Blood [2]	Teststerone level in Blood [3]	Testosterone level in Blood [4]
CNC(=N)NCCC[C@H](NC(=O)[C@H](CC(C)C)NC(=O)NNC(=O)[C@H](Cc1ccccc1)NC(=O)[C@H](CO)NC(=O)[C@H](CC(N)=O)NC(=O)CCc1cccnc1)C(=O)N[C@@H](Cc1ccccc1)C(N)=O [Compound No. 322, 3-(3-Pyridyl)propionyl-Asn-Ser-Phe-AzaGly-Leu-Arg(Me)-Phe-NH2] ({Propanoyl(3-(3-pyridyl))}-NSF[azaGly]L[Arg(Me)]F-NH2)	3 out of 5	lower than in the hCG administration	at least 6.7 mmol/animal	11.6 oocytes	29.6 oocytes	tendency to show a higher level in rats with no ovulation induction	very low level	no difference was found among Groups A, B, C and D	less than a half of the level in Group A	–	–	–
CNC(=N)NCCC[C@H](NC(=O)[C@H](CC(C)C)NC(=O)NNC(=O)[C@H](Cc1ccccc1)NC(=O)[C@H](CO)NC(=O)[C@H](CC(N)=O)NC(=O)[C@@H](Cc1ccncc1)NC(=O)[C@H](N)Cc1ccc(O)cc1)C(=O)N[C@@H](Cc1ccccc1)C(N)=O [Compound No. 305, D-Tyr-D-Pya(4)-Asn-Ser-Phe-AzaGly-Leu-Arg(Me)-Phe-NH2] (H-[dY][d4Pal]NSF[azaGly]L[Arg(Me)]F-NH2)	–	lower than in the hCG administration	at least 2.0 mmol/animal	29.4 oocytes	32.6 oocytes	no difference was found among Groups A, B, C and D	less than a half of the level in Group A	no difference was found among Groups A, B, C and D	less than a half of the level in Group A	2%	48%	2%
